{
  "source": "patent US20170218375A1",
  "about": "“MORPHOLINOS, MORPHOLINO UPREGULATING, AND ASSOCIATED METHODS” (University of Utah Research Foundation, priority 2011, published 2017)",
  "key": {"[1]": {"test_system": "mbVEGFR2 protein", "test": "Western blot for mbVEGFR2 from mouse retinal protein after intravitreous injection", "assay_type": "in vivo", "settings": "2 μl of 100 ng/μl intravitreously on day 0 and day 3, western blot on day 4", "text": "(§1) To administer morpholinos in vivo, morpholino conjugated with a dendrimer at the 3′ position (vivo-morpholino) was used for animal experiments. It should be understood that this technique is merely exemplary, and any other method of administration is considered to be within the present scope. […] Next, the protein level of mbVEGFR2 and sVEGFR2 in the retina and the ocular solution was examined by western blot. Consistent with real-time PCR results, moVEGFR2_MOe13 decreased mbVEGFR2 protein in the retina (FIG. 7C) and increased sVEGFR2 protein in the ocular solution (FIG. 7D).\n(§2) To examine whether moVEGFR2_MOe13 could work in the mouse eye, on day 0 and day 3 2 μl of 100 ng/μl moVEGFR2_MOe13 or STD_MO or DPBS were injected intravitreously. On day 4, retinal total RNA was extracted with RNeasy mini kit with DNaseI treatment. sVEGFR2 and mbVEGFR2 mRNA expression were determined by the method described above. For western blot of mbVEGFR2, on day 4, retina was dissolved in RIPA buffer. For western blot of sVEGFR2, on 4 day, intraocular solution was obtained from 6 eyes by pipette. After centrifuge, supernatant was used for further experiment. For western blot, biotin-conjugated anti-VEGFR2 (BAF644, R&D Systems, Minneapolis, Minn.) was used at 1 μg/μl."}, "[2]": {"test_system": "sVEGFR2 mRNA", "test": "RT-PCR of sVEGFR2 mRNA in mouse MS-1 cell line", "assay_type": "cell-based", "text": "Because VEGFR2_MOe13 decreases mbVEGFR2 and increases sVEGFR2, it is expected that VEGFR2_MOe13 can inhibit angiogenesis and lymphangiogenesis in vivo. To study the effect of VEGFR2_MOe13 in animal models, moVEGFR2_MOe13 was created that targets the exon13-intron13 junction of the mouse VEGFR2 gene. By RT-PCR analysis, it was found moVEGFR2_MOe13 increased sVEGFR2 mRNA and decreased mbVEGFR2 mRNA in the mouse MS-1 cell line (FIG. 7A). […] FIGS. 7(f, g) show the mean area of corneal neovascularization and lymphangiogenesis respectively (n=13-16). Risk factors (p-value) were calculated by two-tail student's t-test (*: p<0.05, **p<0.01, ***p<0.001). Error bar is ±s.e.m.\nEach morpholino oligomer was purchased from Gene Tools (Philomath, Oreg.). The sequences of each morpholino oligomer and primers for PCR are listed in supplemental Table. […] The cells were washed three times and fluorescence was detected by a FACScan Analyzer (BD Biosciences, San Jose, Calif.). […]\ncDNAs were synthesized from 400 ng total RNA using Omniscript RT kit (Qiagen, Valencia, Calif.) and Oligo-dT primer(dT20) according to the manufacturer's instructions. Real-time PCR was performed using QuantiTect SYBR Green PCR Kit (Qiagen, Valencia, Calif.) and 1 μl of cDNA. […]"}, "[3]": {"test_system": "sVEGFR2 protein", "test": "Western blot for sVEGFR2 from mouse ocular solution after intravitreous injection", "assay_type": "in vivo", "settings": "2 μl of 100 ng/μl intravitreously on day 0 and day 3, western blot on day 4", "text": "as §1, §2"}},
  "note": "{Dendrimer} = dendrimer conjugate (vivo-morpholino)",
  "data": [
    {"substance": "5′-cacccagggatgcctccatacCTAG-3′ (antisense CACCCAGGGATGCCTCCATACCTAG; all phosphorodiamidate morpholino (PMO), 3' {Dendrimer}) [moVEGFR2_MOe13, morpholino that targets the exon13-intron13 junction of the mouse VEGFR2 gene; in vivo conjugated with a dendrimer (vivo-morpholino)]", "values": [
      {"measurement": "mbVEGFR2 protein in the retina", "setting": "[1]", "value": "decreased"},
      {"measurement": "sVEGFR2 mRNA by RT-PCR", "setting": "[2]", "value": "increased"},
      {"measurement": "sVEGFR2 protein in the ocular solution", "setting": "[3]", "value": "increased"}
    ]}
  ]
}
